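Method: 48-hour compound exposure of cells in 96-well plates, five concentrations, linear interpolation of endpoints. GI50: concentration for 50% inhibition of growth.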 The source made the active and inactive calls. No stated cut-off is given here; in the data, active = GI50 up to about 1.1 µM and inactive = higher.
How the values were obtained:
Assay in all cases: DTP human tumour cell line panel, 48 h
NCI-H23 = test system: NCI-H23
NCI-H460 = test system: NCI-H460
HT-29 = test system: HT-29
SN12C = test system: SN12C
OVCAR-5 = test system: OVCAR-5
OVCAR-8 = test system: OVCAR-8
COLO 205 = test system: COLO 205
SF-539 = test system: SF-539
UACC-62 = test system: UACC-62
OVCAR-3 = test system: OVCAR-3
SNB-75 = test system: SNB-75
OVCAR-4 = test system: OVCAR-4
HOP-92 = test system: HOP-92
CCRF-CEM = test system: CCRF-CEM
RPMI-8226 = test system: RPMI-8226
ACHN = test system: ACHN
SK-MEL-28 = test system: SK-MEL-28

Measured: GI50

N#CC(C#N)=C1NC(=O)C(c2ccccc2)C(=O)N1 (configuration not stated)
inactive: NCI-H23 > 100 µM | NCI-H460 > 100 µM | HT-29 > 100 µM | SN12C > 100 µM | OVCAR-5 > 100 µM | OVCAR-8 > 100 µM | COLO 205 > 100 µM | SF-539 > 100 µM | UACC-62 > 100 µM | OVCAR-3 > 100 µM | SNB-75 > 100 µM | OVCAR-4 > 100 µM | HOP-92 > 100 µM | CCRF-CEM > 100 µM | RPMI-8226 > 100 µM

CCOC(=O)C(C)NC(=O)NC12CC3CC(CC(F)(C3)C1)C2 (configuration not stated)
inactive: NCI-H23 > 100 µM | NCI-H460 > 100 µM | HT-29 > 100 µM | ACHN > 100 µM | OVCAR-5 > 100 µM | SK-MEL-28 > 100 µM | OVCAR-8 > 100 µM | COLO 205 41.7 µM | SF-539 > 100 µM | UACC-62 > 100 µM | OVCAR-3 42 µM | SNB-75 65.3 µM | HOP-92 11.5 µM | CCRF-CEM 76.7 µM | RPMI-8226 88.3 µM

COC(=O)c1cc(-c2cccn2C)c2c(c1C(=O)OC)c1ccccc1n2C
inactive: NCI-H23 85.7 µM | NCI-H460 39.8 µM | HT-29 6.98 µM | ACHN 17.9 µM | SN12C > 100 µM | SK-MEL-28 71.1 µM | OVCAR-8 56.9 µM | COLO 205 32.9 µM | SF-539 43.8 µM | UACC-62 > 100 µM | OVCAR-3 12.7 µM | SNB-75 71.4 µM | OVCAR-4 37.8 µM | HOP-92 50.5 µM | RPMI-8226 43.7 µM

CC(=O)O[C@H]1[C@@H]2[C@@H]3[C@@H](C[C@H]1C)[C@@H](C)CO[C@@]1(C)CC/C=C(/C)C[C@@H]2O[C@@H]31
inactive: NCI-H23 > 100 µM | NCI-H460 > 100 µM | HT-29 > 100 µM | ACHN > 100 µM | SN12C > 100 µM | OVCAR-5 > 100 µM | SK-MEL-28 > 100 µM | OVCAR-8 > 100 µM | COLO 205 > 100 µM | SF-539 > 100 µM | UACC-62 > 100 µM | OVCAR-3 > 100 µM | SNB-75 > 100 µM | OVCAR-4 > 100 µM | HOP-92 > 100 µM | CCRF-CEM > 100 µM | RPMI-8226 > 100 µM

CC1(C)CC(=O)C(C(=O)Nc2cccs2)=C(O)C1
inactive: NCI-H23 30 µM | NCI-H460 35.9 µM | HT-29 49.1 µM | ACHN 32.7 µM | SN12C 39.4 µM | OVCAR-5 44 µM | SK-MEL-28 > 100 µM | OVCAR-8 34.8 µM | COLO 205 19.6 µM | SF-539 36.2 µM | UACC-62 29.2 µM | OVCAR-3 29.4 µM | SNB-75 25.2 µM | OVCAR-4 31.1 µM | HOP-92 27.6 µM | CCRF-CEM 23 µM | RPMI-8226 31 µM

CC1=C2[C@@H](c3ccccc3)C3C=CC2(c2ccccc23)N(C(=O)Nc2cccc3ccccc23)C1=O (some centres not stated)
inactive: NCI-H23 > 100 µM | ACHN > 100 µM | SN12C > 100 µM | OVCAR-5 > 100 µM | SK-MEL-28 > 100 µM | OVCAR-8 > 100 µM | COLO 205 > 100 µM | SF-539 > 100 µM | UACC-62 > 100 µM | OVCAR-3 > 100 µM | OVCAR-4 > 100 µM | HOP-92 > 100 µM | CCRF-CEM > 100 µM | RPMI-8226 > 100 µM

N#CC(/C(CCC(=O)Nc1ccc(Cl)cc1)=N/NC(=O)c1cc2ccccc2cc1O)c1ccccc1 (configuration not stated)
inactive: NCI-H23 39.3 µM | NCI-H460 30.7 µM | HT-29 45.9 µM | ACHN 24.9 µM | SN12C 43.4 µM | OVCAR-5 22.8 µM | SK-MEL-28 48.8 µM | OVCAR-8 32.2 µM | COLO 205 40.3 µM | UACC-62 25.1 µM | OVCAR-3 30.5 µM | SNB-75 45 µM | OVCAR-4 51.9 µM | HOP-92 40.9 µM | CCRF-CEM 10.2 µM | RPMI-8226 14.9 µM

O=C1NC(Cc2ccc(O)cc2)C(=O)N2CCCC12 (configuration not stated)
inactive: NCI-H460 > 100 µM | HT-29 > 100 µM | ACHN > 100 µM | SN12C > 100 µM | OVCAR-5 > 100 µM | SK-MEL-28 > 100 µM | OVCAR-8 > 100 µM | COLO 205 > 100 µM | SF-539 > 100 µM | UACC-62 > 100 µM | OVCAR-3 > 100 µM | SNB-75 > 100 µM | OVCAR-4 > 100 µM | HOP-92 > 100 µM | CCRF-CEM > 100 µM | RPMI-8226 > 100 µM

O=C(O)CCC(=O)Oc1ccc(O)c2c1CCCC2=O
inactive: NCI-H23 > 100 µM | NCI-H460 > 100 µM | HT-29 > 100 µM | ACHN > 100 µM | SN12C > 100 µM | OVCAR-5 > 100 µM | SK-MEL-28 > 100 µM | OVCAR-8 > 100 µM | COLO 205 > 100 µM | SF-539 > 100 µM | UACC-62 69.7 µM | OVCAR-3 > 100 µM | SNB-75 55.7 µM | OVCAR-4 > 100 µM | CCRF-CEM > 100 µM | RPMI-8226 95.5 µM

COc1ccc2c(c1)Oc1cc(O)ccc1[C@H]2c1ccccc1C(=O)NC(C)c1ccccc1 (some centres not stated)
inactive: NCI-H23 15.5 µM | NCI-H460 13.3 µM | HT-29 19.9 µM | ACHN 13.2 µM | SN12C 16.3 µM | OVCAR-5 15.3 µM | SK-MEL-28 17.7 µM | OVCAR-8 16 µM | COLO 205 17.1 µM | SF-539 16.1 µM | UACC-62 12.1 µM | OVCAR-3 12.3 µM | SNB-75 16.4 µM | CCRF-CEM 16 µM | RPMI-8226 4.66 µM

C[C@]12CCC(=O)C=C1CC[C@@H]1[C@@H]2C(=O)C[C@@]2(C)[C@H]1CC[C@]2(O)C(=O)CO [CORTISONE]
inactive: NCI-H23 > 100 µM | NCI-H460 > 100 µM | HT-29 > 100 µM | ACHN > 100 µM | SN12C > 100 µM | SK-MEL-28 > 100 µM | OVCAR-8 > 100 µM | COLO 205 > 100 µM | SF-539 > 100 µM | OVCAR-3 > 100 µM | SNB-75 > 100 µM | OVCAR-4 > 100 µM | HOP-92 > 100 µM | CCRF-CEM > 100 µM | RPMI-8226 > 100 µM

CCCC(=O)N[C@H]1C2C3CC4C5CC(C42)C1(C)C53 (some centres not stated)
inactive: NCI-H460 > 100 µM | HT-29 > 100 µM | ACHN > 100 µM | SN12C > 100 µM | OVCAR-5 > 100 µM | SK-MEL-28 > 100 µM | COLO 205 > 100 µM | SF-539 > 100 µM | UACC-62 > 100 µM | OVCAR-3 > 100 µM | SNB-75 > 100 µM | OVCAR-4 > 100 µM | HOP-92 > 100 µM | CCRF-CEM > 100 µM | RPMI-8226 > 100 µM

CC1(C)OCC([C@H]2CC23SCCCS3)O1 (some centres not stated)
inactive: NCI-H23 > 100 µM | NCI-H460 > 100 µM | HT-29 > 100 µM | ACHN > 100 µM | SN12C > 100 µM | OVCAR-5 > 100 µM | SK-MEL-28 > 100 µM | OVCAR-8 > 100 µM | COLO 205 > 100 µM | SF-539 > 100 µM | UACC-62 > 100 µM | SNB-75 > 100 µM | OVCAR-4 > 100 µM | HOP-92 51.8 µM | RPMI-8226 > 100 µM

C[C@H]1CC[P+](Cc2ccccc2)(c2ccccc2)C1 (some centres not stated)
inactive: NCI-H23 > 100 µM | NCI-H460 > 100 µM | HT-29 73.6 µM | ACHN > 100 µM | SN12C > 100 µM | OVCAR-5 > 100 µM | SK-MEL-28 84.7 µM | OVCAR-8 > 100 µM | COLO 205 38 µM | SF-539 > 100 µM | UACC-62 76.6 µM | OVCAR-3 41.2 µM | SNB-75 73.6 µM | OVCAR-4 > 100 µM | CCRF-CEM > 100 µM | RPMI-8226 19.5 µM

COCCOCOC(C)(C)[C@H](CCOC(C)=O)O[Si](c1ccccc1)(c1ccccc1)C(C)(C)C
inactive: NCI-H23 10.5 µM | NCI-H460 5.74 µM | HT-29 12.9 µM | ACHN 15.2 µM | SN12C 5.77 µM | OVCAR-5 16.8 µM | SK-MEL-28 56.5 µM | OVCAR-8 11.9 µM | COLO 205 3.44 µM | UACC-62 15.7 µM | OVCAR-3 11 µM | SNB-75 38.7 µM | OVCAR-4 15 µM | HOP-92 5.61 µM | CCRF-CEM 4.97 µM | RPMI-8226 3.96 µM

NC(=O)Cn1c(=O)[nH]c(=O)c2[nH]cnc21
inactive: NCI-H23 > 100 µM | NCI-H460 > 100 µM | HT-29 > 100 µM | ACHN > 100 µM | SN12C > 100 µM | OVCAR-5 > 100 µM | SK-MEL-28 > 100 µM | OVCAR-8 > 100 µM | COLO 205 > 100 µM | SF-539 > 100 µM | UACC-62 > 100 µM | OVCAR-3 > 100 µM | SNB-75 > 100 µM | CCRF-CEM > 100 µM

Cc1cccc(NC(=O)/C(=N\N)C(c2cnc3ccc([N+](=O)[O-])cc3n2)[N+](=O)[O-])c1C (configuration not stated)
inactive: NCI-H23 > 100 µM | NCI-H460 > 100 µM | HT-29 > 100 µM | ACHN > 100 µM | SN12C > 100 µM | SK-MEL-28 > 100 µM | OVCAR-8 > 100 µM | COLO 205 > 100 µM | SF-539 > 100 µM | UACC-62 66.2 µM | OVCAR-3 > 100 µM | SNB-75 > 100 µM | OVCAR-4 > 100 µM | HOP-92 > 100 µM | CCRF-CEM > 100 µM
